Data published in patent US6353007B1, “Substituted 1-(4-aminophenyl)indoles and their use as anti-inflammatory agents” (Boehringer Ingelheim Pharmaceuticals, Inc., priority 2000, dated 2002).

Tested on: IL-2 promoter/enhancer
Test: IL-2 promoter assay (luciferase reporter, J.1F/C6 Jurkat cells, ionomycin and PMA induction)
Type: cell-based
Details: Homo sapiens; J.1F/C6 Jurkat cell line; induction with ionomycin and PMA; read-out: IC50, inhibition of luciferase activity
Description: The IL-2 promoter assay measures transcriptional activation of a luciferase reporter gene which has been placed under control of the IL-2 promoter/enhancer. All the known regulatory features of the IL-2 gene are contained within a ˜300 bp sequence immediately upstream of the open reading frame. The region −328 to +35 relative to the transcription start site of the IL-2 gene is obtained by […] of human genomic DNA and is subcloned into the promoterless luciferase reporter vector pGL2-Basic (Promega). The resulting construct, pIL2P-luc, and a vector containing a neomycin resistance gene, pcDNA/Neo (Invitrogen), are linearized and stably transfected into Jurkat cells (a human T cell line) by electroporation.
For screening compounds, the cells are pelleted by centrifugation, washed once with PBS, resuspended in RPMI (phenol red-free) containing 5% FBS, and dispensed into 96-well, white microtiter plates (Packard) at 50,000 cells/well. The cells are pre-incubated with compounds (1 μg/ml) for 15 min prior to addition of ionomycin (1 μg/ml) and PMA (10 ng/ml) in a final volume of 100 μl. Following a 5 hr incubation at 37° C. in a humidified incubator, 100 μl of Luc-Lite lysis buffer/luciferase assay buffer (Promega) is added and luminescence measured using a Packard TopCount scintillation counter/luminometer.

## C=CC[C@@H]1/C=C(\C)C[C@H](C)C[C@H](OC)[C@H]2O[C@@](O)(C(=O)C(=O)N3CCCC[C@H]3C(=O)O[C@H](/C(C)=C/[C@@H]3CC[C@@H](O)[C@H](OC)C3)[C@H](C)[C@@H](O)CC1=O)[C@H](C)C[C@@H]2OC [FK506]
  IC50: 0.3 nM
